# Measured values from US11884652B2, “Tetrazole derivatives as TRPA1 inhibitors” (Boehringer Ingelheim International GmbH, priority 2020, dated 2024).
# What was measured:
# human TRPA1 ion channel = target: T1, human TRPA1 ion channel (Homo sapiens, UniProt O75762); experiment: Assay A: TRPA1 assay (FLIPR, AITC-induced calcium, HEK293 cells); type: cell-based; details: read-out: hTRPA1 IC50
# T1 construct: host or cells: HEK293
# Procedure: A human HEK293 cell line over-expressing the human TRPA1 ion channel (Perkin Elmer, Product No. AX-004-PCL) is used as a test system for compound efficacy and potency. Compound activity is determined by measuring the effect of compounds on intracellular calcium concentration induced by AITC (Allylisothiocyanat) agonism in a FLIPRtetra system (Molecular Devices).
# The cells are obtained as frozen cells in cryo-vials and stored until use at −150° C. Cells are grown in culture medium (MEM/EBSS medium with 10% FCS and 0.4 mg/ML Geneticin). […] For sub-culturing cells are detached from flasks by Versene. At the day before the assay, cells are detached, washed twice with medium (MEM/EBSS medium with 10% FCS) and 20000 cells in 20 μl/well are seeded to Poly D-Lysin biocoated 384-well plates (black, clear bottom, Cat. 356697) from Corning. Plates are incubated for 24 hours at 37° C./5% CO2 before use in the assay.
# The test compounds are dissolved in 100% DMSO at a concentration of 10 mM and in a first step diluted in DMSO to a concentration of 5 mM, followed by serial dilution steps in 100% DMSO. Dilution factor and number of dilution steps may vary according to needs. Typically 8 different concentrations by 1:5 dilutions are prepared, further intermediate dilutions (1:20) of the substances are carried out with HBSS/HEPES buffer (1×HEPES, Cat. 14065 from Gibco, 20 mM HEPES, Cat. 83264 from SIGMA, 0.1% BSA Cat. 11926 from Invitrogen, pH 7.4
# At the assay day cells are washed 3× with assay puffer, 20 μL buffer remaining in the wells after washing. 10 μL Ca6 kit (Cat. R8191 MolecularDevices) loading buffer in HBSS/HEPES is added to the cells and the plates are incubated with lid for 120 minutes at 37°/5% CO2. 10 μL of compound or controls in HBSS/HEPES buffer/5% DMSO from the intermediate dilution plate are carefully added to the wells. […] Finally 10 μL of the agonist AITC 50 μM dissolved in HBSS/HEPES buffer/0.05% DMSO (final concentration 10 μM) is added to the wells followed by an additional read on the FLIPRtetra device for 10 minutes. The area under the signal curve (AUC) after AITC addition is used for IC50/% inhibition calculations
# Data Evaluation and Calculation:
# Each assay microtiter plate contains wells with vehicle (1% DMSO) controls instead of compound as controls for AITC induced luminescence (100% CTL; high controls) and wells with vehicle controls without AITC as controls for non-specific changes in luminescence (0% CTL; low controls).
# The analysis of the data is performed by the calculation of the area under signal curve of the individual wells. Based on this values the % value for the measurement of each substance concentration is calculated (AUC(sample)−AUC(low))*100/(AUC(high)−AUC(low)) using MegaLab software (in house development). The IC50 values are calculated from the % control values using MegaLab software. Calculation: [y=(ad)/(1+(x/c)^b)+d], a=low value, d=high value; x=conc M; c=IC50 M; b=hill; y=% ctrl
# [1] = Assay B: Microsomal clearance; type: in vitro ADME, human; details: pooled liver microsomes 1 mg/ml, 1 μM compound, NADPH, 37° C.; clearance as % of hepatic blood flow
# Procedure: Assay B: Microsomal Clearance:
# The metabolic degradation of the test compound is assayed at 37° C. with pooled liver microsomes. The final incubation volume of 100 μl per time point contains TRIS buffer pH 7.6 at RT (0.1 M), magnesium chloride (5 mM), microsomal protein (1 mg/ml) and the test compound at a final concentration of 1 μM.
# Following a short preincubation period at 37° C., the reactions are initiated by addition of beta-nicotinamide adenine dinucleotide phosphate, reduced form (NADPH, 1 mM) and terminated by transferring an aliquot into solvent after different time points (0, 5, 15, 30, 60 min). Additionally, the NADPH-independent degradation is monitored in incubations without NADPH, terminated at the last time point. The [%] remaining test compound after NADPH independent incubation is reflected by the parameter c(control) (metabolic stability). The quenched incubations are pelleted by centrifugation (10000 g, 5 min).
# An aliquot of the supernatant is assayed by LC-MS/MS for the amount of parent compound. The half-life (t½ INVITRO) is determined by the slope of the semilogarithmic plot of the concentration-time profile.
# The intrinsic clearance (CL_[…]) is calculated by considering the amount of protein in the incubation: CL_[…] [μl/min/mg protein]=(Ln 2/(half-life [min]*protein content [mg/ml]))*1000 CL_[…]_INVIVO [ml/min/kg]=(CL_[…] [μL/min/mg protein]×MPPGL [mg protein/g liver]×liver factor [g/kg bodyweight])/1000 Qh[%]=CL[ml/min/kg]/hepatic blood flow [ml/min/kg])
# (§1) Hepatocellularity, human: 120×10e6 cells/g liver
# (§2) Liver factor, human: 25.7 g/kg bodyweight
# (§3) Blood flow, human: 21 ml/(min×kg)
# [2] = Assay C: Hepatocyte clearance; type: in vitro ADME, human; details: hepatocyte suspension, 1 μM compound, 6 h; predicted clearance as % of hepatic blood flow
# Procedure: Assay C: Hepatocyte Clearance
# The metabolic degradation of the test compound is assayed in a hepatocyte suspension. Hepatocytes (cryopreserved) are incubated in Dulbecco's modified eagle medium (supplemented with 3.5 μg glucagon/500 mL, 2.5 mg insulin/500 mL and 3.75 mg/500 mL hydrocortison) containing 5% or 50% species serum.
# The cells are incubated for six hours (incubator, orbital shaker) and samples ([…]) are taken at 0, 0.5, 1, 2, 4 and 6 hours. Samples are transferred into acetonitrile and pelleted by centrifugation (5 min). The supernatant is transferred to a new 96-deepwell plate, evaporated under nitrogen and resuspended.
# Decline of Parent Compound is Analyzed by HPLC-MS/MS
# CLint is calculated as follows CL_[…]=Dose/AUC=(C0/CD)/(AUD+clast/k)×1000/60. C0: initial concentration in the incubation [μM], CD: cell density of vital cells [10e6 cells/mL], AUD: area under the data [μM×h], clast: concentration of last data point [μM], k: slope of the regression line for parent decline [h−1].
# The calculated in vitro hepatic intrinsic clearance can be scaled up to the intrinsic in vivo hepatic Clearance and used to predict hepatic in vivo blood clearance (CL) by the use of a liver model (well stirred model). CL_[…]_INVIVO [ml/min/kg]=(CL_[…] [μL/min/10e6 cells]×hepatocellularity [10e6 cells/g liver]×liver factor [g/kg bodyweight])/1000 CL[ml/min/kg]=CL_[…]_INVIVO [ml/min/kg]×hepatic blood flow [ml/min/kg]/(CL_[…]_INVIVO [ml/min/kg]+hepatic blood flow [ml/min/kg]) Qh[%]=CL[ml/min/kg]/hepatic blood flow [ml/min/kg])
# as §1, §2, §3
# T1 sequence (O75762 whole entry): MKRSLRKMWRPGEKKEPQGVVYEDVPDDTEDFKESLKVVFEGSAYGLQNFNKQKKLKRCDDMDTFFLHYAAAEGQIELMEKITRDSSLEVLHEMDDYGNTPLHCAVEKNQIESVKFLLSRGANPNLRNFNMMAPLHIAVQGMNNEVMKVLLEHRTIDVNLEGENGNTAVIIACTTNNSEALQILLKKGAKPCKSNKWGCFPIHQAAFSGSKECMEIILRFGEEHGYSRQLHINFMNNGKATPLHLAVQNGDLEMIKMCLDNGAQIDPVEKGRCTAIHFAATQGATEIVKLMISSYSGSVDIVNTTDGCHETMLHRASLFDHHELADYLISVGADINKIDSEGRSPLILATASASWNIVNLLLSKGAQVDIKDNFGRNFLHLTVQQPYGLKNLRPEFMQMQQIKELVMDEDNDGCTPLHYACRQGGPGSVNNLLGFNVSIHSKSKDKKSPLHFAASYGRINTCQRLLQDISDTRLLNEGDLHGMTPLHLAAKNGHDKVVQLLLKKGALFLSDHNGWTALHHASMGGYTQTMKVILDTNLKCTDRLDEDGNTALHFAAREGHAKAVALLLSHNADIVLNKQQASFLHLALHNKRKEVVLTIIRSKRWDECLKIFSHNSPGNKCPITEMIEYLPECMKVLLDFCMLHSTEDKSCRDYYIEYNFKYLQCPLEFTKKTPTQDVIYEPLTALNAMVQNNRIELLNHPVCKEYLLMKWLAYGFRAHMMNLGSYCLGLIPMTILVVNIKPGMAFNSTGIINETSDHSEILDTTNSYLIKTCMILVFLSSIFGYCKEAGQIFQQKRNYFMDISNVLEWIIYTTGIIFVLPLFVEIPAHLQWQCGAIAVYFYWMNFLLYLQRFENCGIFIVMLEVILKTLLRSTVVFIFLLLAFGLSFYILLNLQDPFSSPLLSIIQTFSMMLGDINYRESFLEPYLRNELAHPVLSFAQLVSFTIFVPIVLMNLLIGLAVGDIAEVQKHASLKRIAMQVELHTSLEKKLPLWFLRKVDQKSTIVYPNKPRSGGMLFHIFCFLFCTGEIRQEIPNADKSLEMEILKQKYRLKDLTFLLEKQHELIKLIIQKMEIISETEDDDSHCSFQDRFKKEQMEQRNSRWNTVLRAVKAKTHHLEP
Structure (SMILES),IC50 (human TRPA1 ion channel),human LM [% Qh] [1],human Hepatocytes [% Qh] [2]
CC(C)Cn1c(=O)c(C(N)=O)cn(Cc2nnn(C[C@H](O)c3ccc(Cl)cc3)n2)c1=O [Example 17],213 nM,42 % Qh,49 % Qh
Cn1c(=O)c(C(N)=O)cn(Cc2nnn(C[C@H](O)c3cc(Cl)c(Cl)s3)n2)c1=O [Example 5],26 nM,<23 % Qh,43 % Qh
Cn1c(=O)c(C(=O)NCC(F)(F)F)cn(Cc2nnn(C[C@H](O)c3ccc(Cl)cc3)n2)c1=O [Example 31],68 nM,<23 % Qh,4 % Qh
Cn1c(=O)c(C(N)=O)cn(Cc2nnn(C[C@H](O)c3ccc4oc(F)cc4c3)n2)c1=O [Example 4],34 nM,<23 % Qh,8 % Qh
Cn1c(=O)c(C(=O)NCCn2cccn2)cn(Cc2nnn(C[C@H](O)c3ccc(Cl)cc3)n2)c1=O [Example 35],33 nM,<23 % Qh,19 % Qh
COc1ccc([C@@H](O)Cn2nnc(Cn3cc(C(N)=O)c(=O)n(C)c3=O)n2)cc1 [Example 16],160 nM,<23 % Qh,<4 % Qh
COCCn1c(=O)c(C(N)=O)cn(Cc2nnn(C[C@H](O)c3ccc(Cl)cc3)n2)c1=O [Example 21],258 nM,<23 % Qh,15 % Qh
Cn1c(=O)c(C(N)=O)cn(Cc2nnn(C[C@H](O)c3ccc4c(c3)OCO4)n2)c1=O [Example 11],105 nM,<23 % Qh,<4 % Qh
NC(=O)c1cn(Cc2nnn(C[C@H](O)c3ccc(Cl)cc3)n2)c(=O)n(C2CCC2)c1=O [Example 18],33 nM,38 % Qh,39 % Qh
Cn1c(=O)c(C(N)=O)cn(Cc2nnn(C[C@H](O)c3cc4cc(F)ccc4o3)n2)c1=O [Example 8],59 nM,<23 % Qh,6 % Qh
Cn1c(=O)c(C(=O)NCC(F)F)cn(Cc2nnn(C[C@H](O)c3ccc(Cl)cc3)n2)c1=O [Example 23],39 nM,<23 % Qh,15 % Qh
Cn1c(=O)c(C(N)=O)cn(Cc2nnn(C[C@H](O)c3ccc(Cl)s3)n2)c1=O [Example 10],92 nM,<23 % Qh,15 % Qh
Cn1c(=O)c(C(N)=O)cn(Cc2nnn(C[C@H](O)c3ccc(C#N)s3)n2)c1=O [Example 14],156 nM,<23 % Qh,4 % Qh
Cn1c(=O)c(C(=O)NCC2CC2)cn(Cc2nnn(C[C@H](O)c3ccc(Cl)cc3)n2)c1=O [Example 32],92 nM,52 % Qh,45 % Qh
Cn1c(=O)c(C(=O)NCCn2ccnc2)cn(Cc2nnn(C[C@H](O)c3ccc(Cl)cc3)n2)c1=O [Example 29],229 nM,53 % Qh,27 % Qh
CCn1c(=O)c(C(N)=O)cn(Cc2nnn(C[C@H](O)c3ccc(Cl)cc3)n2)c1=O [Example 19],62 nM,<23 % Qh,5 % Qh
Cn1c(=O)c(C(N)=O)cn(Cc2nnn(C[C@H](O)c3cc4ccccc4s3)n2)c1=O [Example 2],18 nM,<23 % Qh,13 % Qh
"COCCNC(=O)c1cn(Cc2nnn(C[C@H](O)c3ccc(Cl)cc3)n2)c(=O)n(C)c1=O [Example 22, 1-({2-[(2R)-2-(4-chlorophenyl)-2-hydroxyethyl]-2H-1,2,3,4-tetrazol-5-yl}methyl)-N-(2-methoxyethyl)-3-methyl-2,4-dioxo-1,2,3,4-tetrahydropyrimidine-5-carboxamide]",23 nM,<23 % Qh,25 % Qh
Cn1c(=O)c(C(=O)NCCN2CCOCC2)cn(Cc2nnn(C[C@H](O)c3ccc(Cl)cc3)n2)c1=O [Example 24],39 nM,38 % Qh,28 % Qh
Cn1c(=O)c(C(N)=O)cn(Cc2nnn(C[C@H](O)c3cc4ccc(F)cc4o3)n2)c1=O [Example 12],110 nM,<23 % Qh,16 % Qh
Cn1c(=O)c(C(N)=O)cn(Cc2nnn(C[C@H](O)c3ccc(Br)cc3)n2)c1=O [Example 7],56 nM,<23 % Qh,<4 % Qh
Cc1ccc([C@@H](O)Cn2nnc(Cn3cc(C(N)=O)c(=O)n(C)c3=O)n2)cc1 [Example 13],124 nM,<23 % Qh,<4 % Qh
Cn1c(=O)c(C(=O)NCCOC(F)(F)F)cn(Cc2nnn(C[C@H](O)c3ccc(Cl)cc3)n2)c1=O [Example 30],44 nM,28 % Qh,9 % Qh
Cn1c(=O)c(C(=O)NCCS(C)(=O)=O)cn(Cc2nnn(C[C@H](O)c3ccc(Cl)cc3)n2)c1=O [Example 28],186 nM,<23 % Qh,<4 % Qh
NC(=O)c1cn(Cc2nnn(C[C@H](O)c3ccc(Cl)cc3)n2)c(=O)n(CC2CC2)c1=O [Example 20],64 nM,<23 % Qh,15 % Qh
